According to patent EP0059980A1, “Use of an antimicrobial preservative in ophtalmics and the care of contact lenses” (NATEC Institut für naturwissenschaftlich- technische …, priority 1981, dated 1982):
In brackets after ≈: the same amount, converted by molar mass. Like-named read-outs stand apart in the source and are kept apart here.

Columns and labels:
E. coli ATCC 11229 = assay: Minimal inhibitory concentration (MIC), turbidity method in peptone broth; format: cell-based; conditions: Escherichia coli
Text: (§1) Die antimikrobiellen Wirkungsspektren eines erfindungsgemäß vorgeschlagenen Wirkstoffes, nämlich des Laurinsäurecholinesterchlorids, und im Vergleich dazu von den homologen Essigsäure-, Capronsäure- und Palmitinsäurecholinesterchloriden sowie von den bekannten Konservierungsmitteln Adamantylcarbonsäurecholinesterchlorid und Chlor- 'hexidin-diacetat wurden durch Bestimmung der minimalen Hemmkonzentration nach der Trübungsmethode in Pepton-Nährlösung bei einem pH von 7,0 festgestellt. Diese Methode ist von K.H. Wallhäußer und H. Schmidt in "Sterilisation, Desinfektion, Konservierung, Chemotherapie", Stuttgart (1967), Seite 420-421 beschrieben. Die Ergebnisse sind in Tabelle 1 zusammengestellt.

[1] = system: Staphylococcus aureus ATCC 25923; assay: as above; format: cell-based
Text: as §1

[2] = system: Candida albicans ATCC 10231; assay: as above; format: cell-based
Text: as §1

Fusorium oxysporum = assay: as above; format: cell-based
Text: as §1

Aspergillus fumigatus = assay: as above; format: cell-based
Text: as §1

Streptococcus pyogenes = assay: as above; format: cell-based
Text: as §1

Pseudomonas aeruginosa = assay: as above; format: cell-based; conditions: Pepton-Nährlösung, pH 7,0
Text: Die antimikrobiellen Wirkungsspektren eines erfindungsgemäß vorgeschlagenen Wirkstoffes, nämlich des Laurinsäurecholinesterchlorids, und im Vergleich dazu von den homologen Essigsäure-, Capronsäure- und Palmitinsäurecholinesterchloriden sowie von den bekannten Konservierungsmitteln Adamantylcarbonsäurecholinesterchlorid und Chlor- 'hexidin-diacetat wurden durch Bestimmung der minimalen Hemmkonzentration nach der Trübungsmethode in Pepton-Nährlösung bei einem pH von 7,0 festgestellt. […] Die Ergebnisse sind in Tabelle 1 zusammengestellt.

[3] = system: Staphylococcus epidermis ATCC 12228; assay: as above; format: cell-based
Text: as §1

Paecilomyces Ehrlich = assay: as above; format: cell-based
Text: as §1

Proteus vulgaris = assay: as above; format: cell-based
Text: as §1

Paecilomyces variati = assay: as above; format: cell-based
Text: as §1

Enterobacter aerogenes = assay: as above; format: cell-based; conditions: Klebsiella aerogenes
Text: as §1

[4] = system: Bacillus cereus ATCC 11778; assay: as above; format: cell-based
Text: as §1

[5] = system: Bacillus subtilis ATCC 6633; assay: as above; format: cell-based
Text: as §1

[6] = pancreatic juice
Method: (§3) Ferner wurde eine 1 %ige wäßrige Laurinsäurecholinesterchloridlösung in Gegenwart von Pankreassaft simulierten physiologischen Bedingungen (38°C) ausgesetzt und nach 1 Stunde und nach 24 Stunden Proben gezogen und auf entstandene freie Fettsäuren untersucht. Dazu wurden die Proben mit Petroläther extrahiert und im Extrakt ' die Fettsäuren mikroanalytisch bestimmt.

[7] = system: Albino-Meerschweinchen (Pirlbright white); assay: Direct skin irritation test, ointment applied daily for one week; format: in vivo; conditions: 200 ppm in Vaseline ointment base, 12 guinea pigs, daily for one week on shorn flank
Method: (§2) Ferner wurde die Haut- und Schleimhautverträglichkeit von Laurinsäurecholinesterchlorid an Albino-Meerschweinchen aus einem leicht allergisierbaren Stamm (Pirlbright white) von 400 bis 700 g Gewicht und bei kleinwüchsigen Kaninchen von 1,5 bis 3 kg Gewicht geprüft. Die Tiere erhielten Standarddiät und Wasser nach Belieben. Die Raumtemperatur betrug etwa 20 °C, die Luftfeuchtigkeit etwa 50 %, die tägliche Belichtungsdauer 12 Stunden.
Die Prüfsubstanz wurde in einer Salbengrundlage aus Vaseline mit 200 ppm des Wirkstoffs auf direkte Hautreizung getestet. Bei 12 Meerschweinchen wurde die Präparation eine Woche lang täglich auf einem kurz geschorenen Bezirk an der Flanke aufgetragen und etwa 30 Sekunden eingerieben.

Pseudomonas fluorescens = assay: Minimal inhibitory concentration (MIC), turbidity method in peptone broth; format: cell-based; conditions: Pepton-Nährlösung, pH 7,0
Text: as §1

Ratten = assay: Subacute oral toxicity test; format: in vivo; conditions: rats, 20 and 50 mg per kg body weight
[8] = Hydrolytic stability of aqueous solution kept boiling; format: physicochemical; conditions: 5 % aqueous solution
Text: Die erfindungsgemäß vorgeschlagenen Laurinsäurecholinestersalze besitzen auch die erforderliche Stabilität und Beständigkeit. So wurde eine 5 %ige wäßrige Laurinsäurecholinesterchloridlösung 8 Stunden am Sieden gehalten. Danach wurde eine nur unwesentliche Zunahme des Säuregehalts der Trockensubstanz von 2,5 auf 3,9 % festgestellt. Demnach kann unter den Bedingungen, unter denen die erfindungsgemäß vorgeschlagenen Wirkstoffe normaler; weise als Konservierungsmittel eingesetzt werden, eine hydrolytische Spaltung des Wirkstoffes praktisch ausgeschlossen werden.

[9] = Hydrolysis in presence of pancreatic juice under simulated physiological conditions
Method: as §3

Acute oral toxicity test = assay: Acute oral toxicity test; parameters: species or system Mäuse; conditions: mouse, in vivo, black mice, mean (range in brackets), read-out: oraler LD 50-Wert
Text: Anhand des Laurinsäurecholinesterchlorids als Beispiel für die erfindungsgemäß verwendeten Laurinsäurecholinestersalze wurde ferner eine akute orale Toxizitätsprüfung durchgeführt, wobei schwarze Mäuse als Versuchstiere dienten. Dabei wurde gefunden, daß der orale LD 50-Wert im Mittel bei 3,15 (2,66 bis 3,74) g/kg Tiergewicht liegt.

[10] = system: Albino-Meerschweinchen (Pirlbright white); assay: Skin sensitisation test (induction and provocation phase); format: in vivo; conditions: 200 ppm in Vaseline; three weeks induction, 5 days pause, 3 days provocation; checked after 24 h, 2 and 3 days
Method: as §2
Daraufhin wurde bei den gleichen Tieren die lokale Anwendung der Prüfsubstanz auf drei Wochen ausgedehnt (Induktionsphase). Nach anschließender 5-tägiger Pause wurde die Prüfsubstanz an drei aufeinanderfolgenden Tagen auf einem nicht vorbehandelten kontralateralen kurzgeschorenen Kontrollbezirk eingerieben (Provokationsphase),.
Aufgrund dieser Versuche ergab sich kein Hinweis auf sensibilisierende Eigenschaften des Laurinsäurecholinesterchlorids.

Kaninchenauge = assay: Ocular irritation test according to Draize (mucous membrane tolerance); format: in vivo, Kaninchen; conditions: 2.000 ppm in 0,9 % saline, 0,1 ml in conjunctival sac, eight rabbits
Method: as §2
Die Prüfung auf Schleimhautverträglichkeit wurde am Kaninchenauge vorgenommen. Die Prüfsubstanz wurde als Lösung von 2.000 ppm Laurinsäurecholinesterchlorid in 0,9 %iger wäßriger Kochsalzlösung im okkulären Reizwirkungstest nach Draize an acht Kaninchen auf Schleimhautverträglichkeit in der folgenden Weise geprüft.
0,1 ml der Testlösung wurden im Konjunktivalsack eines Tierauges unter Schließung von Ober- und Unterlid eingebracht. Man ließ die Lösung eine Minute lang einwirken. Das andere Auge wurde zur Kontrolle in gleicher Weise mit destilliertem Wasser behandelt.
Eine Minute nach der Applikation wurden bei der Hälfte der Tiere die behandelten Augen eine Minute lang mit '10 bis 20 ml lauwarmer physiologischer Kochsalzlösung naChgespült..Die Augen wurden anschließend bei allen behandelten Tieren geprüft.

[11] = system: Bakterien, Hefen und Schimmelpilze; assay: Preservative challenge test according to USP XIX; format: cell-based; conditions: 0,01 % in sterile aqueous solution; criteria of Wallhäußer for category I products, up to 28 days
Text: Als Beispiel für die erfindungsgemäß vorgesehenen Konservierungsmittel wurde Laurinsäurecholinesterchlorid einem Konservierungsbelastungstest nach der Vorschrift USP XIX unterworfen und mit bekannten Konservierungsmitteln, die in Kontaktlinsen-Pflegelösungen eingesetzt werden und dem gleichen Test unterworfen wurden, verglichen.. Die USP XIX schreibt vor, daß bei einem entsprechenden Belastungstest, bei dem man von einer Ausgangskeimzahl von […] ausgeht, ein'e Verminderung der Keimzahl innerhalb von 14 Tagen um 99,9 % bei den zugesetzten Bakterien erreicht wird und daß sich die zugesetzten Pilzsporen und Hefen innerhalb der gleichen Zeit nicht signifikant vermehren.
Um die antimikrobielle Wirkung der verschiedenen untersuchten Konservierungsmittel besser vergleichen zu können, wurden die Belastungstest bei jeweils gleicher Wirkstoffkonzentration (0,01 % in steriler wäßriger Lösung) und bei gleicher Ausgangsbelastung des jeweils eingesetzten Stammes durchgeführt. In den Tabellen 2 bis 5 sind die Keimzahlen nach jeweils 2 und 10 Minuten sowie nach 1 Stunde, 2 und 24 Stunden angegeben, in den Tabellen 6 bis 9 sind die Ergebnisse nach 1 Tag, 7, 14, 21 und 28 Tagen festgehalten, da die Keimzahlen während der weiteren Laufzeit bis zum 28. Tag bei guter Konservierung nicht mehr ansteigen dürfen.
Wie aus der Monographie von K.H. Wallhäußer, Sterilisation, Desinfektion, Konservierung, 2. […]

[12] = ATCC11229, E. coli ATCC 11229, Pepton-Nährlösung, pH 7,0, read-out: MIC-Werte
[13] = ATCC25923, Staphylococcus aureus ATCC 25923, Pepton-Nährlösung, pH 7,0, read-out: MIC-Werte
[14] = ATCC10231, Candida albicans ATCC 10231, Pepton-Nährlösung, pH 7,0, read-out: MIC-Werte
[15] = Fusorium oxysporum, Pepton-Nährlösung, pH 7,0, read-out: MIC-Werte
[16] = Pepton-Nährlösung, pH 7,0, read-out: MIC-Werte
[17] = ATCC11229, pH 7, read-out: MIC-Werte
[18] = Staphylococcus aureus, ATCC25923, pH 7, read-out: MIC-Werte
[19] = Candida albicans, ATCC10231, pH 7, read-out: MIC-Werte
[20] = Paecilomyces, pH 7, read-out: MIC-Werte

SMILES: C[N+](C)(C)CCOC(=O)C12CC3CC(CC(C3)C1)C2 [Adamantylcarbonsäurecholinesterchlorid]
- MIC (E. coli ATCC 11229; [12]): > 400 µg/mL
- MIC [1, 13]: 200 µg/mL
- MIC [2, 14]: > 400 µg/mL
- MIC (Fusorium oxysporum; [15]): > 400 µg/mL
- MIC (Aspergillus fumigatus; [16]): > 400 µg/mL
- MIC (Streptococcus pyogenes; [16]): 20 µg/mL
- MIC (Pseudomonas aeruginosa): > 400 µg/mL

SMILES: CCCCCC(=O)OCC[N+](C)(C)C [Capronsäurecholinesterchlorid]
- MIC (E. coli ATCC 11229; [12]): > 400 µg/mL
- MIC [1, 13]: > 400 µg/mL
- MIC [2, 14]: > 400 µg/mL
- MIC (Fusorium oxysporum; [15]): > 400 µg/mL
- MIC (Aspergillus fumigatus; [16]): > 400 µg/mL
- MIC (Streptococcus pyogenes; [16]): 100 µg/mL
- MIC (Pseudomonas aeruginosa): > 400 µg/mL

SMILES: N=C(NCCCCCCNC(=N)NC(=N)Nc1ccc(Cl)cc1)NC(=N)Nc1ccc(Cl)cc1 [Chlorhexidin-diacetat]
- MIC ([3]; ATCC12228, Staphylococcus epidermis ATCC 12228, Pepton-Nährlösung, pH 7,0, read-out: MIC-Werte): 0.78 µg/mL (≈ 1.54 µM)
- MIC (Paecilomyces Ehrlich; Paecilomyces Ehrlich, Pepton-Nährlösung, pH 7,0, read-out: MIC-Werte): 0.78 µg/mL (≈ 1.54 µM)
- MIC (Proteus vulgaris; [16]): 50 µg/mL (≈ 98.9 µM)
- MIC (Paecilomyces variati; Paecilomyces variati, Pepton-Nährlösung, pH 7,0, read-out: MIC-Werte): 1.56 µg/mL (≈ 3.09 µM)
- MIC (E. coli ATCC 11229; [12]): 3.13 µg/mL (≈ 6.19 µM)
- MIC (Enterobacter aerogenes; Enterobacter aerogenes, Pepton-Nährlösung, pH 7,0, read-out: MIC-Werte): 12.5 µg/mL (≈ 24.7 µM)
- MIC [1, 13]: 1.56 µg/mL (≈ 3.09 µM)
- MIC ([4]; ATCC11778, Bacillus cereus ATCC 11778, Pepton-Nährlösung, pH 7,0, read-out: MIC-Werte): 0.78 µg/mL (≈ 1.54 µM)
- MIC [2, 14]: 3.13 µg/mL (≈ 6.19 µM)
- MIC (Fusorium oxysporum; [15]): 12.5 µg/mL (≈ 24.7 µM)
- MIC ([5]; ATCC6633, Bacillus subtilis ATCC 6633, Pepton-Nährlösung, pH 7,0, read-out: MIC-Werte): 0.78 µg/mL (≈ 1.54 µM)
- MIC (Aspergillus fumigatus; [16]): 12.5 µg/mL (≈ 24.7 µM)
- MIC (Streptococcus pyogenes; [16]): 0.78 µg/mL (≈ 1.54 µM)

SMILES: CC(=O)OCC[N+](C)(C)C [Essigsäurecholinesterchlorid]
- MIC (E. coli ATCC 11229; [17]): > 400 µg/mL
- MIC [1, 18]: > 400 µg/mL
- MIC [2, 19]: > 400 µg/mL
- MIC (Fusorium oxysporum; [15]): > 400 µg/mL
- MIC (Aspergillus fumigatus; pH 7, read-out: MIC-Werte): > 400 µg/mL
- MIC (Streptococcus pyogenes; pH 7, read-out: MIC-Werte): 100 µg/mL
- MIC (Pseudomonas aeruginosa): > 400 µg/mL

SMILES: CCCCCCCC(=O)OCC(O)CO (stereo not drawn) [Glycerinmonocaprylat]
- Abbauquote [6]: 13,8%

SMILES: CCCCCCCCCCCC(=O)OCC[N+](C)(C)C [Laurinsäurecholinesterchlorid]
- direkte Hautreizung (Hautreaktionen) [7]: keine Hautreakticnen
- MIC ([3]; Staphylococcus, ATCC12228, pH 7, read-out: MIC-Werte): 0.78 µg/mL
- MIC (Paecilomyces Ehrlich; [20]): 0.78 µg/mL
- MIC (Proteus vulgaris; pH 7, read-out: MIC-Werte): 200 µg/mL
- MIC (Pseudomonas fluorescens): 2.5 µg/mL
- MIC (Paecilomyces variati; [20]): 0.78 µg/mL
- MIC (E. coli ATCC 11229; [17]): 10 µg/mL
- MIC (Enterobacter aerogenes; pH 7, read-out: MIC-Werte): 100 µg/mL
- MIC [1, 18]: 2.5 µg/mL
- MIC ([4]; Bacillus cereus, ATCC11778, pH 7, read-out: MIC-Werte): 3.13 µg/mL
- MIC [2, 19]: 10 µg/mL
- MIC (Fusorium oxysporum; pH 7, read-out: MIC-Werte): 3.13 µg/mL
- MIC ([5]; Bacillus subtilis, ATCC6633, pH 7, read-out: MIC-Werte): 0.78 µg/mL
- MIC (Aspergillus fumigatus; pH 7, read-out: MIC-Werte): 10 µg/mL
- MIC (Streptococcus pyogenes; pH 7, read-out: MIC-Werte): 0.16 µg/mL
- Wirkungen bei subakuter oraler Toxizitätsprüfung (Ratten): keine Wirkungen
- Säuregehalt der Trockensubstanz ([8]; after 8 hours boiling): 3,9%
- Säuregehalt der Trockensubstanz ([8]; before boiling): 2,5%
- Hydrolyse im Kontrollversuch ohne Pankreassaft ([9]; control without pancreatic juice, 38°C): keine Hydrolyse
- metabolised at 1 h ([9]; pancreatic juice): 1.5%
- metabolised at 24 h ([9]; pancreatic juice): 2.5%
- LD50 (Acute oral toxicity test): 3150 mg/kg
- MIC (Pseudomonas aeruginosa): 20 µg/mL
- Reaktion im Kontrollbezirk (Sensibilisierung) [10]: in keinem Falle eine Reaktion
- Reaktion im Sinne von Rötung, Schwellung, Sekretion oder Hornhautveränderung (Kaninchenauge; 1 min): In keinem Falle kam es zu einer Reaktion
- spontane Abwehrreaktionen (Kaninchenauge): keine spontanen Abwehrreaktionen
- Bedingungen für ausreichende Konservierung (Abfall der Keimzahl) [11]: weit übertroffen

SMILES: CCCCCCCCCCCCCCCC(=O)OCC[N+](C)(C)C [Palmitinsäurecholinesterchlorid]
- MIC (E. coli ATCC 11229; [12]): > 400 µg/mL
- MIC [1, 13]: 2.5 µg/mL
- MIC [2, 14]: 100 µg/mL
- MIC (Fusorium oxysporum; [15]): > 400 µg/mL
- MIC (Aspergillus fumigatus; [16]): 100 µg/mL
- MIC (Streptococcus pyogenes; [16]): 1.25 µg/mL
- MIC (Pseudomonas aeruginosa): > 400 µg/mL
